Experimental data taken from article PMC8574157 (Journal of chemical information and modeling, 2021).
Where two headings read alike, the source gives them in different places.

Legend:
YFV 17D strain = assay: microbe, parasite or virus in culture; type: cell-based, yellow fever virus
in vitro = conditions: human
protease for YFV = protease for YFV (Yellow fever virus, UniProt P03314); type: biochemical
polymerase for YFV = polymerase for YFV (Yellow fever virus, UniProt P03314); type: biochemical
[1] = Yellow fever virus, Huh-7, read-out: EC50 (Neutral Red)
[2] = Yellow fever virus, Huh-7, read-out: EC50 (Visual)

Sequence of protease for YFV (P03314 1485-2107 limits assumed): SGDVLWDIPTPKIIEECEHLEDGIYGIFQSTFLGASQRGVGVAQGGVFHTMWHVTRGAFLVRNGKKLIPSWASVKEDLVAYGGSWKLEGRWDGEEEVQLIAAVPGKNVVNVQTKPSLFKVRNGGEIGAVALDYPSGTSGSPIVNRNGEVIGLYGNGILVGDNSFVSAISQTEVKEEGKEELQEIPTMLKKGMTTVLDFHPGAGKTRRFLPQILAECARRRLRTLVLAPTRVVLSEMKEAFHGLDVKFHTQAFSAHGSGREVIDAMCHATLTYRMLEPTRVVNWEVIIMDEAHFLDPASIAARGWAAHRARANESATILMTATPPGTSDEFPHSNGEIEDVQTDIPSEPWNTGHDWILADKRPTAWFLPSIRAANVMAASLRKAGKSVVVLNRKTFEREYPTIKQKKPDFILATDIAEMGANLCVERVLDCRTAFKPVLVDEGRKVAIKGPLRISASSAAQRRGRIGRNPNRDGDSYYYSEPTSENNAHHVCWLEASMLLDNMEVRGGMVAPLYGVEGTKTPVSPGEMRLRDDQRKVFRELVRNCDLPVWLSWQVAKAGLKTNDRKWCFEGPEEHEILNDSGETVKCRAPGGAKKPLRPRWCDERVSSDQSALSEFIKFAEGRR
Sequence of protease for YFV (P03314 1355-1484 partner limits assumed): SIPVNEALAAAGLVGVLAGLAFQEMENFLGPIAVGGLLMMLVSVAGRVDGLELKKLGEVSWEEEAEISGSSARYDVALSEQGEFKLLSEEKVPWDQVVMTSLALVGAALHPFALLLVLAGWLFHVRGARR
Sequence of polymerase for YFV (P03314 2507-3411 limits assumed): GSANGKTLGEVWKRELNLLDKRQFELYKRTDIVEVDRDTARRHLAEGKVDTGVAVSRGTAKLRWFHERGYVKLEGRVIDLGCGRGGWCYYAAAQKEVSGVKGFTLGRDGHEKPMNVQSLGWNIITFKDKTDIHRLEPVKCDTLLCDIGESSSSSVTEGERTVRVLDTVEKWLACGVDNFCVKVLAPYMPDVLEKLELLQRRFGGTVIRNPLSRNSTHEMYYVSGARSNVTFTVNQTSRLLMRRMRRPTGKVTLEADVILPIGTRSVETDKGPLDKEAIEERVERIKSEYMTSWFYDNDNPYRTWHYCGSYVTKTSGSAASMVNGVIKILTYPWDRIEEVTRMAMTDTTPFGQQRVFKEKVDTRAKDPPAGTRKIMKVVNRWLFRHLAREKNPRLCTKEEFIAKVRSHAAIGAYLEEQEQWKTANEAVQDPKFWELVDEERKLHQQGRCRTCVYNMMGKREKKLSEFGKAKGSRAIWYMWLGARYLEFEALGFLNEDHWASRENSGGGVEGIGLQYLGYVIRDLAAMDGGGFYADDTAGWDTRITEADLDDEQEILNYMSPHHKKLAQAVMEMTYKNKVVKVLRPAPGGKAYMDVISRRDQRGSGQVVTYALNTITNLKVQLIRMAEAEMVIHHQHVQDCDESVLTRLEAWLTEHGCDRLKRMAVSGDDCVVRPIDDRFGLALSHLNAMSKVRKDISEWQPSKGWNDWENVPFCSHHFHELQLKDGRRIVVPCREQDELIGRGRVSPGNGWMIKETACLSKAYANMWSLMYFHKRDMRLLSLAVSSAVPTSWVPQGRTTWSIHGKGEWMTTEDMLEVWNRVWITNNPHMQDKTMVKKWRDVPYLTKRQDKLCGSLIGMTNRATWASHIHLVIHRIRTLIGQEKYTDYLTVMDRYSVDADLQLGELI

Compound	EC50 (YFV 17D strain; [1]) [µM]	EC50 (YFV 17D strain; [2]) [µM]	CC50 (in vitro; CC50 (Neutral Red)) [µM]	CC50 (in vitro; CC50 (Visual)) [µM]	activity against the protease for YFV (protease for YFV)	activity against the polymerase for YFV (polymerase for YFV)	EC50 (YFV 17D strain; read-out: EC50 (Neutral Red)) [µM]	EC50 (YFV 17D strain; read-out: EC50 (Visual)) [µM]
CCn1nc(C(=O)O)c(=O)c2cc3c(cc21)OCO3 [Cinoxacin]	> 100	> 100	> 100	> 100				
O=C1[C@H](CC[C@H](O)c2ccc(F)cc2)[C@@H](c2ccc(O)cc2)N1c1ccc(F)cc1 [Ezetimibe]	> 29	> 32	29	32				
Fc1ccc([C@@H]2CCNC[C@H]2COc2ccc3c(c2)OCO3)cc1 [Paroxetine]	> 3.1	> 3.2	3.1	3.2				
Oc1ccc(-c2nc(-c3ccncc3)c(-c3ccc(F)cc3)[nH]2)cc1 [SB202190]	> 100	> 100	> 100	> 100				
N-{4-cyano-5-[(4-fluorophenyl)amino]-1H-pyrazol-3-yl}naphthalene-2-sulfonamide [Compound 11626003]					not active	not active	3.3	3.2
